# Paper PMC11899342, “Novel Triazeneindole Antibiotics: Synthesis and Hit-to-Lead Optimization” (International Journal of Molecular Sciences, 2025)
# Test: Stability in artificial intestinal juice
# Format: in vitro ADME
# Description: During ADME studies, the concentration of the compounds was analyzed using ultra-performance liquid chromatography (UPLC) coupled with tandem mass spectrometry (MS/MS) in the multiple reaction monitoring (MRM) mode. A quantitative analysis was performed using the internal standard (IS) calibration method, with tolbutamide as the IS.
# The analyses were carried out on a system composed of an Agilent 1290 Infinity UPLC system (Agilent Technologies, USA) connected by ESI interface to a tandem quadrupole mass spectrometer QTRAP 6500 (AB Sciex Corp, Framingham, MA, USA). The separation was conducted on an YMC Triart C18 50 × 2 mm, 1.9 μm column, which was kept at 35 °C. The samples were cooled to 8 °C in an autosampler, and aliquots of 1 µL were delivered onto the column. Elution was performed using gradients of A (0.1% formic acid in water) and B (0.1% formic acid in acetonitrile), at the flow rate 0.35 mL/min. […] The declustering potential was 31 V for BX and 93 V for IS, resepectively; the collision energy was attuned to 17 eV; the collision cell exit potential was 10 V for BX and 8 V for IS MRM, respectively; the analyses were recorded for 305 → 234 (BX) and 271 → 172 (tolbutamide). […]
smiles,measurement,setting,value
"CCOC(=O)c1[nH]c2cc(F)ccc2c1/N=N/N1CCCC1 [BX-SI043, Ethyl (E)-6-fluoro-3-(pyrrolidin-1-yldiazenyl)-1H-indole-2-carboxylate]",half-life at 1 µM,"artificial intestinal juice with pancreatin, pH 6.8, pancreatin, 37 °C, 1 μM, read-out: t1/2 in artificial intestinal juice (converted)",1 h
same,metabolism in intestinal juice after 4 h of incubation,"pH 6.8, 37 °C, 4 h",fully metabolized
